# What was measured:
# [1] = ocular tolerability in rabbits, topical ophthalmic solution; format: in vivo, rabbits (New Zealand white rabbits)
# Description: Drug concentrations are expressed in terms of the active ingredient (base). The compounds of this invention are dissolved in a suitable ophthalmic solution (e.g., 0.5% Polysorbate-80, 0.02% benzalkonium chloride, 0.1% EDTA, 4.5% mannitol in 5 mM citrate) at 22, 2.2 and 0.22 μM for rabbit study and 111, 33, 11, and 1.1 μM for monkey studies. Drug or vehicle aliquots (25 ul) are administered topically unilaterally or bilaterally. In unilateral applications, the contralateral eyes receive an equal volume of vehicle. Proparacaine (0.5%) is applied to the cornea prior to tonometry to minimize discomfort. Intraocular pressure (IOP) is recorded using a pneumatic tonometer (Alcon Applanation Pneumatonograph) or equivalent.
# [2] = ocular tolerability in cynomolgus monkeys; format: in vivo; settings: compared to compounds disclosed in WO 2004/085430 (Example 2)
# [3] = system: ROS 17/2.8 rat osteosarcoma cells; assay: effect on intracellular cAMP in ROS 17/2.8 cells; format: cell-based
# Description: (§1) RCT-1 and RCT-3 are clonal cell lines immortalized by SV-40 large T antigen from cells released from fetal rat calvair by a combination collagenase/hyaluronidase digestion. RCT-1 cells, derived from cells released during the first 10 minutes of digestion (fraction I), are cultured in RPMI 1640 medium (BRL) with 10% fetal bovine serum and 0.4 mg/ml G418 (BRL). These cells differentiate and express osteoblastic features upon retinoic acid treatment. RCT-3 cells, immortalized from osteoblast-enriched fraction III cells, are cultured in F-12 medium (BRL) with 5% Fetal bovine serum and 0.4 mg/ml G418. TRAB-11 cells are also immortalized by SV40 large T antigen from adult rat tibia and are cultured in RPMI 1640 medium with 10% FBS and 0.4 mg/ml G418. ROS 17/2.8 rat osteosarcoma cells are cultured in F-12 containing 5% FBS. Osteoblast-enriched (fraction III) primary fetal rat calvaria cells are obtained by collagenase/hyaluronidase digestion of calvariae of 19 day-old rat fetuses. See Rodan et al., Growth stimulation of rat calvaria osteoblastic cells by acidic FGF, Endocrinology, 121, 1919-1923 (1987), which is incorporated by reference herein in its entirety. Cells are released during 30-50 minutes digestion (fraction […]) and are cultured in F-12 medium containing 5% FBS. […]
# [4] = system: RCT-3 cells; assay: effect on intracellular cAMP in RCT-3 cells; format: cell-based, rat
# Description: as §1
# [5] = system: TRAB-11 cells; assay: effect on intracellular cAMP in TRAB-11 cells; format: cell-based, rat
# Description: as §1
# [6] = system: EP4 mRNA in RP-1 periosteal cells; assay: EP4 mRNA expression (Northern blot) in RP-1 periosteal cells; format: cell-based, rat; settings: 10^−6 M
# Description: (§2) RP-1 periosteal cells are spontaneously immortalized from primary cultures of periosteal cells from tibae of 4-week old Sprague-Dawley rats and are cultured in DMEM (BRL, Gaithersburg, Md.) with 10% fetal bovine serum (JRH Biosciences, Lenexa, Kans.).
# (§3) Total RNA is extracted from the tibial metaphysis or diaphysis and calvaria using a guanidinium isothiocyanate-phenol-chloroform method after pulverizing frozen bone samples by a tissue homogenizer. See P. Chomczynski et al., Single-step method of RNA isolation by acid guanidium thiocyanate-phenol-chloroform extraction., Analyt Biochem, 162, 156-159 (1987), which is incorporated by reference herein in its entirety. RNA samples ([…]) are separated on 0.9% agarose/formaldehyde gels and transferred onto nylon membranes (Boehringer Mannheim, Germany). Membranes are prehybridized in Hybrisol I (Oncor, Gaithersburg, Md.) and 0.5 mg/ml sonicated salmon sperm DNA (Boehringer) at 42° C. for 3 hours and are hybridized at 42° C. with rat EP2 and mouse EP4 cDNA probes labeled with [^32P]-dCTP (Amersham, Buckinghamshire, UK) by random priming using the rediprime kit (Amersham). After hybridization, membranes are washed 4 times in 2×SSC+0.1% SDS at room temperature for a total of 1 hour and once with 0.2×SSC+0.1% SDS at 55° C. for 1 hour and then exposed to Kodak XAR 2 film at −70° C. using intensifying screens. […]
# [7] = system: EP4 mRNA in RCT-3 cells; assay: EP4 mRNA expression (Northern blot) in RCT-3 cells; format: cell-based, rat
# Description: as §1
# [8] = system: EP2 mRNA in RP-1 cells; assay: EP2 mRNA expression (Northern blot) in RP-1 cells; format: cell-based, rat
# Description: as §2, §3
# [9] = system: EP4 mRNA in bone tissue; assay: EP4 mRNA levels in bone tissue of rats after systemic injection (Northern blot); format: in vivo, rat; settings: five-week-old male rats; 3-6 mg/Kg injected
# From the text: For mRNA localization experiments, 5-week old Sprague-Dawley rats (Charles River) are euthanized by CO2, their tibiae and calvariae are excised, cleaned of soft tissues and frozen immediately in liquid nitrogen. […] Animals are euthanized at several time points post-injection and their tibiae and calvariae, as well as samples from lung and kidney tissues are frozen in liquid nitrogen.
# as §3, with “(Amersham).” for “(Amersham). After hybridization, membranes are washed 4 times in 2×SSC+0.1% SDS at room temperature for a total of 1 hour and once with 0.2×SSC+0.1% SDS at 55° C. for 1 hour and then exposed to Kodak XAR 2 film at −70° C. using intensifying screens.”
# [10] = system: EP2 mRNA in bone tissue; assay: EP2 mRNA in bone tissue of rats after systemic injection (Northern blot); format: in vivo, rat; settings: 3-6 mg/Kg injected
# Description: (§4) For mRNA localization experiments, 5-week old Sprague-Dawley rats (Charles River) are euthanized by CO2, their tibiae and calvariae are excised, cleaned of soft tissues and frozen immediately in liquid nitrogen. For EP4 regulation experiments, 6-week old rats are given a single injection of either vehicle (7% ethanol in sterile water) or an anabolic dose of PGE2 (Cayman Chemical, Ann Arbor, Mich.), 3-6 mg/kg in the same vehicle) intraperitoneally. Animals are euthanized at several time points post-injection and their tibiae and calvariae, as well as samples from lung and kidney tissues are frozen in liquid nitrogen.
# Total RNA is extracted from the tibial metaphysis or diaphysis and calvaria using a guanidinium isothiocyanate-phenol-chloroform method after pulverizing frozen bone samples by a tissue homogenizer. See P. Chomczynski et al., Single-step method of RNA isolation by acid guanidium thiocyanate-phenol-chloroform extraction., Analyt Biochem, 162, 156-159 (1987), which is incorporated by reference herein in its entirety. RNA samples ([…]) are separated on 0.9% agarose/formaldehyde gels and transferred onto nylon membranes (Boehringer Mannheim, Germany). […]
# [11] = system: EP4 expression in bone marrow cells; assay: localization of EP4 mRNA expression in bone tissue by in situ hybridization; format: in vivo, rat; settings: rats, single anabolic dose
# Description: as §4
# Frozen tibiae are sectioned coronally at […] thickness and sections are mounted on charged slides (Probe On Plus, Fisher Scientific, Springfield, N.J.) and are kept at −70° C. until hybridization. cRNA probes are labeled with ^35S-UTPgS (ICN, Costa Mesa, Calif.) using a Riboprobe II kit (Promega Madison, Wis.). Hybridization is performed overnight at 50° C. […]
# In situ hybridization is used in order to localize cells expressing EP4 in bone. In control experiment (vehicle-injected) rats, low expression of EP4 is detected in bone marrow cells. […]
compound,measurement,setting,value
"CC(C)OC(=O)c1ccc(CCN2C(=O)OCC[C@@H]2/C=C/[C@@H](O)C(F)(F)c2cccc(Br)c2)cc1 [Example 1, isopropyl 4-(2-{(4R)-4-[(1E,3R)-4-(3-bromophenyl)-4,4-difluoro-3-hydroxybut-1-en-1-yl]-2-oxo-1,3-oxazinan-3-yl}ethyl)benzoate]",ocular tolerability,"[1]; rabbits, compared to compounds disclosed in WO 2004/085430 (Example 2)",improved ocular tolerability
same,ocular tolerability,[2],improved ocular tolerability
"CC(C)OC(=O)c1ccc(CCN2C(=O)OCC[C@@H]2CC[C@@H](O)C(F)(F)c2cccc(Br)c2)cc1 [Example 3, isopropyl 4-(2-{(4S)-4-[(3R)-4-(3-bromophenyl)-4,4-difluoro-3-hydroxybutyl]-2-oxo-1,3-oxazinan-3-yl}ethyl)benzoate]",drug treatment related ocular adverse effects (eye closure),"[1]; New Zealand white rabbits, single dose, topical, unilateral, 2.2 μM (25 μL) ophthalmic solution, vehicle panel-controlled",very slight drug treatment related ocular adverse effects (eye closure)
CCCCC[C@H](O)/C=C/[C@H]1[C@H](O)CC(=O)[C@@H]1C/C=C\CCCC(=O)O [PGE2],effect on intracellular cAMP,[3],no effect
same,effect on intracellular cAMP,[4],markedly induced
same,effect on intracellular cAMP,[5],markedly induced
same,effect on EP4 mRNA levels,[6],rapidly increases EP4 mRNA levels
same,time of peak EP4 mRNA levels after treatment,[6],2 h
same,effect on EP4 mRNA levels,[7],no effect
same,EP2 mRNA expression before or after treatment,[8],not expressed
same,effect on EP4 mRNA levels in the tibial diaphysis,[9],rapidly increased EP4 mRNA levels
same,time of peak EP4 mRNA levels in the tibial diaphysis after injection,[9],2 h
same,induction of EP2 mRNA in bone tissue,[10],does not induce EP2 mRNA
same,expression of EP4 in bone marrow cells,[11],increased the expression of EP4 in bone marrow cells

# Source: patent US20090270395A1, “EP4 Receptor Agonist, Compositions and Methods Thereof” (priority 2005, published 2009)
